The values that follow come from patent US9023789B2, “Amylin analogs and pharmaceutical compositions thereof” (Novo Nordisk A/S, priority 2012, dated 2015).

Series [1] addresses T1, human amylin 3(a) receptor (human calcitonin receptor + RAMP-3) in BHK570 cells (Homo sapiens, UniProt O60896+P30988).
T1 construct: expressed in transfected cells
The series is described as follows: ASSAY (II)a functional assay, human amylin receptor (CRE luciferase). It is filed as cell-based. In outline:
(§1)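 Ligand exposure 3 h at 37 °C, 5% CO2 in DMEM with 10% FBS, 10 mM Hepes pH 7.4. cAMP-driven luciferase read by luminescence after 30 min LucLite at room temperature.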

The target in series [2] is T2, human calcitonin (a) receptor in BHK570 cells (Homo sapiens, UniProt P30988).
T2 construct: expressed in transfected cells
T2 sequence (P30988 25-474): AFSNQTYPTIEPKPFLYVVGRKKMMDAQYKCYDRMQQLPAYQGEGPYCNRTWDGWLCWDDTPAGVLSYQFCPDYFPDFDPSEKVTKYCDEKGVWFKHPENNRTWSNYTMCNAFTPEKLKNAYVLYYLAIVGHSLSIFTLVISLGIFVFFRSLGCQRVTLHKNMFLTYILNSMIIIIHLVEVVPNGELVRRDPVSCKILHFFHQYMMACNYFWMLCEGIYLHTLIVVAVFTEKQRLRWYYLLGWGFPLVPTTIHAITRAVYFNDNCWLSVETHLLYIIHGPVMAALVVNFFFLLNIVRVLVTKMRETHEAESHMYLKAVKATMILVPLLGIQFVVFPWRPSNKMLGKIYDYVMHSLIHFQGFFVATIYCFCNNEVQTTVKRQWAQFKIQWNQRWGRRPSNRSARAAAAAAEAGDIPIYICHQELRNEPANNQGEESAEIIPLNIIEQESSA
The series is described as follows: ASSAY (II)a functional assay, human calcitonin receptor (CRE luciferase). It is filed as cell-based. To be noted: read-out: hCTR funct. EC50. The method, boiled down:
as §1

Series [3] is described as follows: ASSAY (IV) determination of solubility. The format is physicochemical. In outline: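 Polypeptide stock in water ([…]) was mixed 1:1 with 100 mM buffers: glycylglycine at pH 3.0, 4.0, 5.0 and bistrispropane at pH 6.0, 6.5, 7.0, 7.5, 8.0. After 18 hours at room temperature, samples were centrifuged and polypeptide concentration measured by UPLC.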
For series [4], the target named is T3, human amylin receptor (membranes from Amylin 3(a)/CRE-luc cells) (Homo sapiens, UniProt O60896+P30988).
T3 construct: expressed in transfected cells
T3 sequence (P30988 25-474): T2 sequence (P30988 25-474)
T3 sequence (O60896 24-148 partner): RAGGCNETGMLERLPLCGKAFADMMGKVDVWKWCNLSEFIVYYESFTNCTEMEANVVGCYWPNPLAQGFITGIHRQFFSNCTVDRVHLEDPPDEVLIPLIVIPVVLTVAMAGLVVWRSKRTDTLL
As to the kind of experiment: ASSAY (V) binding to the human amylin receptor (SPA, 125I-rat amylin).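 Note: competition binding of cell membranes (35 ng/µL) mixed with SPA beads in 384-well plates at 40 µL total volume, read by scintillation counting.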

The target of series [5] is T4, human calcitonin receptor (Homo sapiens, UniProt P30988).
T4 construct: expressed in transfected cells
T4 sequence (P30988 25-474): T2 sequence (P30988 25-474)
The series is described as follows: ASSAY (VII) binding to the human calcitonin receptor (SPA, 125I-Calcitonin).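 Note: cell membranes (35 ng/µL) combined with SPA beads in 40 µL of pH 7.4 Hepes buffer, 384-well format, signal counted on a TopCounter instrument.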 To be noted: read-out: hCTR bind IC50.
Description: Membranes were prepared in the following way; the cells were rinsed with PBS and incubated with Versene for approximately 5 min before harvesting. The cells were flushed with PBS and the cell-suspension was centrifuged for 5 min at 1000 rpm. […] The resulting pellet was resuspended in buffer 2 and protein concentration was measured (BCA protein Assay, Pierce). The homogenate was kept cold during the whole procedure. The membranes were kept at −80° C. until use. Assay was performed in a 384 well Optiplate (PerkinElmer) in a total volume of 40 ul. Membranes were mixed with SPA beads. Final concentration of membranes 35 ng/μL final and Final concentration of SPA beads was 0.05 mg/well. Test-compounds were dissolved in DMSO and further diluted in assay buffer (50 mM Hepes, pH 7.4, 1 mM CaCl2, 5 mM MgCl2, 0.1% OA and 0.02% Tween20). […] Samples were analyzed on TopCounter™ (Packard).

A further series deals with T5, rat calcitonin receptor (Rattus norvegicus, UniProt P32214).
T5 construct: expressed in transfected cells; host or cells: BHK tk'ts 13 (transient, FuGENE 6), membranes
T5 sequence (P32214 25-479 isoform P32214-2 limits assumed): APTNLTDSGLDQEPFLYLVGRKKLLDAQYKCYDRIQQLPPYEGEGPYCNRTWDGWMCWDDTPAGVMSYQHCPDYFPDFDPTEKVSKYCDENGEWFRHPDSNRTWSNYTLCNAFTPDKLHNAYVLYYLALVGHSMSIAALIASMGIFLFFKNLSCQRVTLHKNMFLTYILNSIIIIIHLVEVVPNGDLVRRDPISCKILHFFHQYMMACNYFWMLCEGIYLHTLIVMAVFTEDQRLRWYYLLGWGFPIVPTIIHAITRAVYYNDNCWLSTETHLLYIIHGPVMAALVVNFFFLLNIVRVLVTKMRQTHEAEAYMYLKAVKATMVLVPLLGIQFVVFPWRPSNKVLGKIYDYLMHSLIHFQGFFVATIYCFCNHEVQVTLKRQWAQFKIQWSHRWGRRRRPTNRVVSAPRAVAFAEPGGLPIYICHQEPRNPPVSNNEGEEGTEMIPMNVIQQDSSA
As to the kind of experiment: ASSAY (VIII) binding to the rat calcitonin receptor. To be noted: Table 7, read-out: rCTR bind IC50. In outline:
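Transfect BHK tk′ts 13 cells transiently with rat calcitonin receptor, culture in DMEM containing 10% FBS, collect cells about 48 hours later, then prepare membranes.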

≈ marks a conversion by molar mass, not a printed value. Read-outs that look alike come from different tables or passages of the source. Numbered stars: 1 amine (or outer) side, 2 acyl side, 3 side chain; on linkers, the order of the positions; unused ones are H or OH. Bridge positions count the residues as written; N and C are the ends. Side chains are listed from the residue outwards. Peptide text beside a SMILES is read from it. * marks the point of attachment. C20 diacid = O=C(O)CCCCCCCCCCCCCCCCCCC(=O)*; γGlu = O=C(O)[C@H](CCC(=O)[*:2])N[*:1] Where only a bound is given, the exact number is not on record here.

`CC(C)C[C@H](NC(=O)[C@H](CCCNC(=N)N)NC(=O)[C@H](CCC(N)=O)NC(=O)[C@@H](NC(=O)[C@H](C)NC(=O)[C@@H]1CSSC[C@H](NC(=O)[C@@H](N)CCCCNC(=O)CC[C@H](NC(=O)CC[C@H](NC(=O)CCCCCCCCCCCCCCCCCCC(=O)O)C(=O)O)C(=O)O)C(=O)N[C@@H](CC(N)=O)C(=O)N[C@@H]([C@@H](C)O)C(=O)N[C@@H](C)C(=O)N[C@@H]([C@@H](C)O)C(=O)N1)[C@@H](C)O)C(=O)N[C@@H](C)C(=O)N[C@@H](CC(=O)O)C(=O)N[C@@H](Cc1ccccc1)C(=O)N[C@@H](CC(C)C)C(=O)N[C@@H](CCCNC(=N)N)C(=O)N[C@@H](Cc1c[nH]cn1)C(=O)N[C@@H](CO)C(=O)N[C@@H](CO)C(=O)N1CCC[C@H]1C(=O)N[C@@H](CC(N)=O)C(=O)N[C@@H](Cc1ccccc1)C(=O)NCC(=O)N[C@@H](C)C(=O)N1CCC[C@H]1C(=O)N[C@@H](CC(C)C)C(=O)N[C@@H](CO)C(=O)N[C@@H](CO)C(=O)N[C@H](C(=O)N[C@@H](CC(N)=O)C(=O)N[C@H](C(=O)NCC(=O)N[C@@H](CO)C(=O)N[C@@H](CC(=O)O)C(=O)N[C@H](C(=O)N[C@@H](Cc1ccc(O)cc1)C(N)=O)[C@@H](C)O)C(C)C)[C@@H](C)O` [Example 1] (H-K([γGlu-γGlu-C20 diacid])CNTATCATQRLADFLRHSSPNFGAPLSSTNVGSDTY-NH2; disulfide 2-7): the “Ratio hCT/hAmylin funct.” value in series [1] (hCTR funct. EC50 over hAmylin-R funct. EC50) and in series [1] (human functional selectivity: hCTR funct. EC50 / hAmylin-R funct. EC50) was 12.0 throughout. Also, the EC50 in series [1] (human amylin receptor functional potency, assay (II), read-out: hAmylin-R funct. EC50) is 0.224 nM; in series [2] it was 2.7 nM. Also, the solubility at 18 h was at least 200 µM in series [3] (bistrispropane buffer, pH 6.5, read-out: Solubility pH 6.5 Concentration); at least 200 µM in series [3] (bistrispropane buffer, pH 7.5, read-out: Solubility pH 7.5 Concentration); at least 200 µM in series [3] (bistrispropane buffer, pH 6.0, read-out: Solubility pH 6.0 Concentration); at least 200 µM in series [3] (bistrispropane buffer, pH 7.0, read-out: Solubility pH 7.0 Concentration); at least 200 µM in series [3] (bistrispropane buffer, pH 8.0, read-out: Solubility pH 8.0 Concentration); at least 200 µM in series [3] (glycylglycine buffer, pH 3.0, read-out: Solubility pH 3.0 Concentration). Moreover, the solubility at 18 h was at least 200 µM in series [3] (glycylglycine buffer, pH 4.0, read-out: Solubility pH 4.0 Concentration) and 172 µM (≈ 776 µg/mL) in series [3] (glycylglycine buffer, pH 5.0, read-out: Solubility pH 5.0 Concentration). Further, the IC50 in series [4] (Table 4, read-out: hAmylin-R bind IC50) was 1.18 nM; in series [5] it was 32.5 nM; on rat calcitonin receptor it was 135 nM. In addition, the “Ratio hCT/hAmylin binding” value in series [4] (Table 5, selectivity, hCTR bind IC50 / hAmylin-R bind IC50) is 27.6; in series [4] (Table 5a, selectivity, hCTR bind IC50 / hAmylin-R bind IC50), 27.6; in series [4] (Table 5b, selectivity, hCTR bind IC50 / hAmylin-R bind IC50), 27.6; in series [4] (Table 5c, selectivity, hCTR bind IC50 / hAmylin-R bind IC50), 27.6; in series [4] (Table 7, human binding selectivity, included for comparison), 27.6; in series [4] (Table 7a (preferred compounds), human binding selectivity, included for comparison), 27.6. The “Ratio hCT/hAmylin binding” value in series [4] (ratio of human calcitonin receptor binding IC50 to human amylin receptor binding IC50) amounted to 27.6.

A word on the EC50: it is the concentration at which the effect is half-maximal. One may read the IC50 as the concentration that inhibits the measured activity by half.
